Results published in the supplement of paper PMC10733146.

Legend:
Experiment in all cases: viability relative to DMSO control (fraction); higher = less drug effect (more viable cells)
Conditions in all cases: 48 h
[1] = tested on: primary ALL patient cells (S088)
Summary of the method: (§1)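 Viability was measured as CellTiter-Glo luminescence relative to the median of 16 inner DMSO wells. Primary mononuclear tumour cells, fresh or cryopreserved, were Ficoll-isolated from blood or bone marrow or taken from processed lymph node. They were seeded at 4 × 10^4 cells per well into 384-well plates holding pre-plated compounds at five concentrations, one well each, and kept in RPMI-1640 with penicillin/streptomycin, L-glutamine and human serum at 37 °C and 5% CO2 for 48 h.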

[2] = tested on: primary AML patient cells (S006)
Summary of the method: as §1

[3] = tested on: primary AML patient cells (S009)
Summary of the method: as §1

[4] = tested on: primary AML patient cells (S012)
Summary of the method: as §1

[5] = tested on: primary AML patient cells (S017)
Summary of the method: as §1

[6] = tested on: primary AML patient cells (S056)
Summary of the method: as §1

[7] = tested on: primary AML patient cells (S060)
Summary of the method: as §1

[8] = tested on: primary AML patient cells (S071)
Summary of the method: as §1

[9] = tested on: primary AML patient cells (S072)
Summary of the method: as §1

[10] = tested on: primary AML patient cells (S079)
Summary of the method: as §1

[11] = tested on: primary AML patient cells (S085)
Summary of the method: as §1

[12] = tested on: primary B-PLL patient cells (S016)
Summary of the method: as §1

[13] = tested on: primary BL patient cells (S005)
Summary of the method: as §1

[14] = tested on: primary CLL patient cells (S031)
Summary of the method: as §1

[15] = tested on: primary CLL patient cells (S043)
Summary of the method: as §1

[16] = tested on: primary DLBCL patient cells (S082)
Summary of the method: as §1

[17] = tested on: primary FL patient cells (S087)
Summary of the method: as §1

[18] = tested on: primary MCL patient cells (S041)
Summary of the method: as §1

[19] = tested on: primary MCL patient cells (S053)
Summary of the method: as §1

[20] = tested on: primary MCL patient cells (S063)
Summary of the method: as §1

CCc1nc(C(N)=O)c(Nc2ccc(N3CCC(N4CCN(C)CC4)CC3)c(OC)c2)nc1NC1CCOCC1 [Gilteritinib]
viability ([1]; 0.024 µM): 0.698 | viability ([1]; 0.12 µM): 0.545 | viability ([1]; 0.6 µM): 0.388 | viability ([1]; 3 µM): 0.414 | viability ([1]; 15 µM): 0.131 | viability ([2]; 0.024 µM): 0.393 | viability ([2]; 0.12 µM): 0.381 | viability ([2]; 0.6 µM): 0.382 | viability ([2]; 3 µM): 0.729 | viability ([2]; 15 µM): 0.563 | viability ([3]; 0.024 µM): 0.945 | viability ([3]; 0.12 µM): 0.865 | viability ([3]; 0.6 µM): 0.9 | viability ([3]; 3 µM): 0.675 | viability ([3]; 15 µM): 0.986 | viability ([4]; 0.024 µM): 0.956 | viability ([4]; 0.12 µM): 0.97 | viability ([4]; 0.6 µM): 1 | viability ([4]; 3 µM): 0.972 | viability ([4]; 15 µM): 0.928 | viability ([5]; 0.024 µM): 0.987 | viability ([5]; 0.12 µM): 1.09 | viability ([5]; 0.6 µM): 0.606 | viability ([5]; 3 µM): 0.5 | viability ([5]; 15 µM): 0.47 | viability ([6]; 0.024 µM): 0.404 | viability ([6]; 0.12 µM): 0.385 | viability ([6]; 0.6 µM): 0.339 | viability ([6]; 3 µM): 0.497 | viability ([6]; 15 µM): 0.644 | viability ([7]; 0.024 µM): 1 | viability ([7]; 0.12 µM): 1.06 | viability ([7]; 0.6 µM): 0.965 | viability ([7]; 3 µM): 0.663 | viability ([7]; 15 µM): 0.428 | viability ([8]; 0.024 µM): 0.564 | viability ([8]; 0.12 µM): 0.457 | viability ([8]; 0.6 µM): 0.465 | viability ([8]; 3 µM): 0.551 | viability ([8]; 15 µM): 0.878 | viability ([9]; 0.024 µM): 0.983 | viability ([9]; 0.12 µM): 0.882 | viability ([9]; 0.6 µM): 0.54 | viability ([9]; 3 µM): 0.368 | viability ([9]; 15 µM): 0.285 | viability ([10]; 0.024 µM): 1.26 | viability ([10]; 0.12 µM): 0.887 | viability ([10]; 0.6 µM): 0.735 | viability ([10]; 3 µM): 0.626 | viability ([10]; 15 µM): 0.469 | viability ([11]; 0.024 µM): 1.02 | viability ([11]; 0.12 µM): 0.98 | viability ([11]; 0.6 µM): 0.741 | viability ([11]; 3 µM): 0.781 | viability ([11]; 15 µM): 0.756 | viability ([12]; 0.024 µM): 0.818 | viability ([12]; 0.12 µM): 0.819 | viability ([12]; 0.6 µM): 0.875 | viability ([12]; 3 µM): 0.911 | viability ([12]; 15 µM): 0.654 | viability ([13]; 0.024 µM): 0.957 | viability ([13]; 0.12 µM): 0.96 | viability ([13]; 0.6 µM): 0.739 | viability ([13]; 3 µM): 0.667 | viability ([13]; 15 µM): 0.536 | viability ([14]; 0.024 µM): 1.13 | viability ([14]; 0.12 µM): 1 | viability ([14]; 0.6 µM): 0.785 | viability ([14]; 3 µM): 0.791 | viability ([14]; 15 µM): 0.188 | viability ([15]; 0.024 µM): 1.04 | viability ([15]; 0.12 µM): 1.01 | viability ([15]; 0.6 µM): 0.7 | viability ([15]; 3 µM): 0.519 | viability ([15]; 15 µM): 0.393 | viability ([16]; 0.024 µM): 1.14 | viability ([16]; 0.12 µM): 0.761 | viability ([16]; 0.6 µM): 0.409 | viability ([16]; 3 µM): 0.459 | viability ([16]; 15 µM): 0.476 | viability ([17]; 0.024 µM): 1.09 | viability ([17]; 0.12 µM): 1.06 | viability ([17]; 0.6 µM): 0.865 | viability ([17]; 3 µM): 0.807 | viability ([17]; 15 µM): 0.422 | viability ([18]; 0.024 µM): 0.934 | viability ([18]; 0.12 µM): 0.882 | viability ([18]; 0.6 µM): 0.705 | viability ([18]; 3 µM): 0.647 | viability ([18]; 15 µM): 0.406 | viability ([19]; 0.024 µM): 1.07 | viability ([19]; 0.12 µM): 1.02 | viability ([19]; 0.6 µM): 0.7 | viability ([19]; 3 µM): 0.707 | viability ([19]; 15 µM): 0.733 | viability ([20]; 0.024 µM): 1.11 | viability ([20]; 0.12 µM): 1.13 | viability ([20]; 0.6 µM): 0.706 | viability ([20]; 3 µM): 0.42 | viability ([20]; 15 µM): 0.209

O=C(O)CSc1cc(NS(=O)(=O)c2ccc(Br)cc2)c2ccccc2c1O [UMI-77]
viability ([1]; 0.024 µM): 0.244 | viability ([1]; 0.12 µM): 0.291 | viability ([1]; 0.6 µM): 0.291 | viability ([1]; 3 µM): 0.316 | viability ([1]; 15 µM): 0.158 | viability ([2]; 0.024 µM): 1.07 | viability ([2]; 0.12 µM): 1.04 | viability ([2]; 0.6 µM): 0.979 | viability ([2]; 3 µM): 1.01 | viability ([2]; 15 µM): 0.467 | viability ([3]; 0.024 µM): 0.914 | viability ([3]; 0.12 µM): 0.914 | viability ([3]; 0.6 µM): 0.802 | viability ([3]; 3 µM): 0.571 | viability ([3]; 15 µM): 0.0548 | viability ([4]; 0.024 µM): 1.07 | viability ([4]; 0.12 µM): 1.06 | viability ([4]; 0.6 µM): 1.09 | viability ([4]; 3 µM): 1.04 | viability ([4]; 15 µM): 0.715 | viability ([5]; 0.024 µM): 1.01 | viability ([5]; 0.12 µM): 1.02 | viability ([5]; 0.6 µM): 0.983 | viability ([5]; 3 µM): 0.99 | viability ([5]; 15 µM): 0.436 | viability ([6]; 0.024 µM): 0.838 | viability ([6]; 0.12 µM): 0.998 | viability ([6]; 0.6 µM): 0.836 | viability ([6]; 3 µM): 0.999 | viability ([6]; 15 µM): 0.434 | viability ([7]; 0.024 µM): 1.1 | viability ([7]; 0.12 µM): 1.13 | viability ([7]; 0.6 µM): 1.04 | viability ([7]; 3 µM): 1.03 | viability ([7]; 15 µM): 0.73 | viability ([8]; 0.024 µM): 0.883 | viability ([8]; 0.12 µM): 0.921 | viability ([8]; 0.6 µM): 0.879 | viability ([8]; 3 µM): 0.85 | viability ([8]; 15 µM): 0.644 | viability ([9]; 0.024 µM): 0.956 | viability ([9]; 0.12 µM): 0.949 | viability ([9]; 0.6 µM): 0.94 | viability ([9]; 3 µM): 0.994 | viability ([9]; 15 µM): 0.777 | viability ([10]; 0.024 µM): 0.917 | viability ([10]; 0.12 µM): 0.932 | viability ([10]; 0.6 µM): 0.997 | viability ([10]; 3 µM): 0.989 | viability ([10]; 15 µM): 0.79 | viability ([11]; 0.024 µM): 0.887 | viability ([11]; 0.12 µM): 1.07 | viability ([11]; 0.6 µM): 0.905 | viability ([11]; 3 µM): 0.834 | viability ([11]; 15 µM): 1.53 | viability ([12]; 0.024 µM): 1.11 | viability ([12]; 0.12 µM): 1.11 | viability ([12]; 0.6 µM): 0.994 | viability ([12]; 3 µM): 1.07 | viability ([12]; 15 µM): 0.778 | viability ([13]; 0.024 µM): 0.92 | viability ([13]; 0.12 µM): 0.902 | viability ([13]; 0.6 µM): 0.783 | viability ([13]; 3 µM): 0.812 | viability ([13]; 15 µM): 0.276 | viability ([14]; 0.024 µM): 0.84 | viability ([14]; 0.12 µM): 0.875 | viability ([14]; 0.6 µM): 0.886 | viability ([14]; 3 µM): 0.878 | viability ([14]; 15 µM): 0.73 | viability ([15]; 0.024 µM): 0.997 | viability ([15]; 0.12 µM): 0.981 | viability ([15]; 0.6 µM): 0.974 | viability ([15]; 3 µM): 0.979 | viability ([15]; 15 µM): 0.748 | viability ([16]; 0.024 µM): 0.995 | viability ([16]; 0.12 µM): 1.02 | viability ([16]; 0.6 µM): 0.846 | viability ([16]; 3 µM): 0.908 | viability ([16]; 15 µM): 0.595 | viability ([17]; 0.024 µM): 0.936 | viability ([17]; 0.12 µM): 0.937 | viability ([17]; 0.6 µM): 0.923 | viability ([17]; 3 µM): 0.876 | viability ([17]; 15 µM): 0.256 | viability ([18]; 0.024 µM): 0.968 | viability ([18]; 0.12 µM): 0.986 | viability ([18]; 0.6 µM): 0.955 | viability ([18]; 3 µM): 0.929 | viability ([18]; 15 µM): 0.331 | viability ([19]; 0.024 µM): 1.07 | viability ([19]; 0.12 µM): 0.99 | viability ([19]; 0.6 µM): 0.818 | viability ([19]; 3 µM): 0.873 | viability ([19]; 15 µM): 0.191 | viability ([20]; 0.024 µM): 1.06 | viability ([20]; 0.12 µM): 1.05 | viability ([20]; 0.6 µM): 0.974 | viability ([20]; 3 µM): 0.963 | viability ([20]; 15 µM): 0.701
